This note sets out measurements from US9988371B2, “Benzimidazole analogues and related methods” (The Arizona Board of Regents, on Behalf of the University …, priority 2014, dated 2018).

One assay addresses T1, RET/C634R-V804M (Homo sapiens, UniProt P07949, C634R/V804M).
T1 construct: expressed in transfected cells; host or cells: HEK293
Briefly: RET auto-phosphorylation immunoblot in transfected HEK293 cells. Format: cell-based. The settings on record: 1 nM, 2 hrs, cells expressing RET/C634R-V804M. The source says: FIG. 2: Photographs of blots showing inhibition of phosphorylation of gate-keeper RET point mutant and rearranged RET oncoproteins by Pz-1 or vehicle (NT: not treated). HEK293 cells were transiently transfected with vectors expressing RET/C634R-V804M mutant (V804 is the gate-keeper RET residue), or RET/PTC1 (CCDC6-RET, found in papillary thyroid carcinoma and lung adenocarcinoma), RET/PTC3 (NCOA4-RET, found in papillary thyroid carcinoma and lung adenocarcinoma), or KIF5B-RET (found in lung adenocarcinoma). After 36 hr from transfection, cells were serum-starved for 12 hr and then treated for 2 hr with indicated concentrations of Pz-1. 50 μg of total cell lysates were subjected to immunoblotting with anti-phospho-Y1062 (αp1062) and anti-phospho-Y905 (αp905) RET antibodies. The blots were normalized using anti-RET (αRET) antibody.
The inhibition of RET auto-phosphorylation by Pz-1 was measured in several different cell lines including NIH3T3 fibroblasts expressing RET/C634Y or RET/M918T, TT expressing RET/C634W (MTC), Nthy-ory-3-1 (thyroid, non-transformed with RET; negative control), HEK293/RET/PTC1 (CCDC6-RET that can be found in PTC & lung cancer), HEK293/RET-KIF5B (that can be found in lung cancer), HEK293/RET/PTC3 (NCOA4-RET, that can be found in PTC & lung cancer), and HEK293 transfected with RET/C634R-V804M (FIGS. 1-3). […]
On the technique in general: A western blot detects proteins with antibodies after separation by electrophoresis.

The test system of assay [1] is parental NIH3T3 fibroblasts. Briefly: Growth of parental NIH3T3 fibroblasts. The class given is cell-based. The settings on record: up to 1000 nM, 3 days.

Each structure is given as a SMILES string.

T1 sequence (P07949 29-1072 isoform P07949-2 C634R/V804M limits assumed): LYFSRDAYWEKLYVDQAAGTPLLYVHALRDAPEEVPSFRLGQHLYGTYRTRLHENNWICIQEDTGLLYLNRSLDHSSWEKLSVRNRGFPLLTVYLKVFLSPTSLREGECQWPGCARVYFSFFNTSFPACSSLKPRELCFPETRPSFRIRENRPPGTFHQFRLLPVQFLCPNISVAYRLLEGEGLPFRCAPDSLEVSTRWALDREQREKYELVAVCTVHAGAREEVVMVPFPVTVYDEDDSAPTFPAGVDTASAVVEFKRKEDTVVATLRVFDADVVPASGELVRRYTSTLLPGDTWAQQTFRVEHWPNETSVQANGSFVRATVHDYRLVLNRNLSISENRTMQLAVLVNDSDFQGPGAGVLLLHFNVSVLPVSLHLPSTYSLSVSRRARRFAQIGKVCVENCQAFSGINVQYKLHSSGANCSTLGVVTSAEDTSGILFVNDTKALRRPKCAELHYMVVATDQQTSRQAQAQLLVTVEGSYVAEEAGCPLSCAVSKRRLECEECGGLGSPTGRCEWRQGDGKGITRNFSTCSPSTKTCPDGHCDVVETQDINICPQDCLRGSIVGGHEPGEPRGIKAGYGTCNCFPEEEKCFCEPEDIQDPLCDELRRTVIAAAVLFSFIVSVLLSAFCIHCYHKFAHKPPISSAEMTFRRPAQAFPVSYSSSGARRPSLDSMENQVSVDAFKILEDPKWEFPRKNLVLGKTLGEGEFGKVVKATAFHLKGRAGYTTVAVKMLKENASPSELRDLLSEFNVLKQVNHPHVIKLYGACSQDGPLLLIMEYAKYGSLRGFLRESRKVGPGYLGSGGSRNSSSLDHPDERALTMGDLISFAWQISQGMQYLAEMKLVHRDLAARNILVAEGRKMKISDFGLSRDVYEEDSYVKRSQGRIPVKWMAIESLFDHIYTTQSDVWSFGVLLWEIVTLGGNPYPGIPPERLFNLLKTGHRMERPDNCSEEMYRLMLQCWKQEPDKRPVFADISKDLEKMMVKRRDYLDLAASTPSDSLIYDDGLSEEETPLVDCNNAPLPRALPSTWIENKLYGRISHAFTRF

For `Cn1cc(-c2ccc3c(c2)ncn3-c2ccc(CC(=O)Nc3cc(C(C)(C)C)on3)cc2)cn1` [Pz-1, N-(5-(tert-butyl)isoxazol-3-yl)-2-(4-(5-(1-methyl-1H-pyrazol-4-yl)-1H-benzo[d]imidazol-1-yl)phenyl)acetamide], the “inhibition of pRET” value at RET/C634R-V804M is “strongly inhibited”. In assay [1], the effect on growth result was “did not significantly reduce growth”.
